According to patent publication US7781436B2 (Hoffmann-La Roche Inc., priority 2005, dated 2010):
Where a name gives a salt, the structure may show the parent alone.

Each compound was assayed against T1, human V1a receptor (Homo sapiens, UniProt P37288) (assay: human V1a receptor binding (3H-Vasopressin SPA, membranes of transfected HEK293 cells)). Conditions: not given.
T1 construct: expressed in transfected cells; host or cells: HEK293 cells, transiently transfected; membranes prepared
Method: The human V1a receptor was cloned by RT-PCR from total human liver RNA. The coding sequence was subcloned in an expression vector after sequencing to confirm the identity of the amplified sequence. […] Cell membranes were prepared from HEK293 cells transiently transfected with the expression vector and grown in 20 liter fermenters with the following protocol.
50 g of cells are resuspended in 30 ml freshly prepared ice cold Lysis buffer (50 mM HEPES, 1 mM EDTA, 10 mM MgCl2 adjusted to pH=7.4+ complete cocktail of protease inhibitor (Roche Diagnostics)). Homogenized with Polytron for 1 min and sonicated on ice for 2×2 minutes at 80% intensity (Vibracell sonicator). The preparation is centrifuged 20 min at 500 g at 4° C., the pellet is discarded and the supernatant centrifuged 1 hour at 43,000 g at 4° C. (19'000 rpm). The pellet is resuspended in 12.5 ml Lysis buffer+12.5 ml Sucrose 20% and homogenized using a Polytron for 1-2 min. The protein concentration is determined by the Bradford method, and aliquots are stored at −80° C. until use. For binding studies 60 mg Yttrium silicate SPA beads (Amersham) are mixed with an aliquot of membrane in binding buffer (50 mM Tris, 120 mM NaCl, 5 mM KCl, 2 mM CaCl2, 10 mM MgCl2) for 15 minutes with mixing. 50 ul of bead/membrane mixture is then added to each well of a 96 well plate, followed by 50 ul of 4 nM 3H-Vasopressin (American Radiolabeled Chemicals). For total binding measurement 100 ul of binding buffer are added to the respective wells, for non-specific binding 100 ul of […] cold vasopressin and for compound testing 100 ul of a serial dilution of each compound in 2% DMSO. The plate is incubated 1 h at room temperature, centrifuged 1 min at 1000 g and counted on a Packard Top-Count. Non-specific binding counts are subtracted from each well, and data is normalized to the maximum specific binding set at 100%. To calculate an IC 50 the curve is fitted using a non-linear regression model (XLfit) and the Ki is calculated using the Cheng-Prussoff equation.

T1 sequence (P37288 whole entry): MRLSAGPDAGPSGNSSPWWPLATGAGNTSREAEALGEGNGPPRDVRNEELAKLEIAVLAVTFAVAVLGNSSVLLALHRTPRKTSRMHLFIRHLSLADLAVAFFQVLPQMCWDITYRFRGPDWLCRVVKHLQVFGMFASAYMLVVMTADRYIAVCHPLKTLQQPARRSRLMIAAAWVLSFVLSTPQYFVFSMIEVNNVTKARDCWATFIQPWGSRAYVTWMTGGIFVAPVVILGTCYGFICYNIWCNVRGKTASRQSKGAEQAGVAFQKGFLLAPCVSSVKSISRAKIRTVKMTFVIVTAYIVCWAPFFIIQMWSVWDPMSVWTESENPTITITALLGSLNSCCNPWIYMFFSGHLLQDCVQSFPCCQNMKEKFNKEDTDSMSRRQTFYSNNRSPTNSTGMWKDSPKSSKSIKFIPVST

Structure (SMILES) | Ki [nM]
CN(C)C(=O)Cn1cc(C(=O)N2CCC(c3ccccc3OC(F)(F)F)CC2)c2ccc(Cl)cc21 [Example 95, 2-{6-Chloro-3-[4-(2-trifluoromethoxy-phenyl)-piperidine-1-carbonyl]-indol-1-yl}-N,N-dimethyl-acetamide] | 13
CN(C)C(=O)Cn1cc(C(=O)N2CCC(c3ccncc3)CC2)c2ccc(Cl)cc21 [Example 122, 2-[6-Chloro-3-(3,4,5,6-tetrahydro-2H-[4,4′]bipyridinyl-1-carbonyl)-indol-1-yl]-N,N-dimethyl-acetamide] | 10

Same assay, conditions: displacement of 4 nM 3H-Vasopressin, HEK293 cell membranes, Ki by Cheng-Prussoff from IC50; read-out: Ki

Structure (SMILES) | Ki [nM]
CNC(=O)Cn1cc(C(=O)N2CCC(c3ccccc3OC(F)(F)F)CC2)c2ccc(Cl)cc21 [Example 90, 2-{6-Chloro-3-[4-(2-trifluoromethoxy-phenyl)-piperidine-1-carbonyl]-indol-1-yl}-N-methyl-acetamide] | 8
CNC(=O)Cn1cc(C(=O)N2CCC(c3ccccc3C(F)(F)F)CC2)c2ccc(Cl)cc21 [Example 96, 2-{6-Chloro-3-[4-(2-trifluoromethyl-phenyl)-piperidine-1-carbonyl]-indol-1-yl}-N-methyl-acetamide] | 11
CNCCn1cc(C(=O)N2CCC(c3cccc4c3OCC4)CC2)c2ccc(Cl)cc21 [Example 107, [6-Chloro-1-(2-methylamino-ethyl)-1H-indol-3-yl]-[4-(2,3-dihydro-benzofuran-7-yl)-piperidin-1-yl]-methanone] | 12
COc1ccccc1C1CCN(C(=O)c2cn(CCN(C)C)c3cc(Cl)ccc23)CC1 [Example 108, [6-Chloro-1-(2-dimethylamino-ethyl)-1H-indol-3-yl]-[4-(2-methoxy-phenyl)-piperidin-1-yl]-methanone] | 8
CNC(=O)Cn1cc(C(=O)N2CCC(c3ccccc3F)CC2)c2ccc(Cl)cc21 [Example 111, 2-{6-Chloro-3-[4-(2-fluoro-phenyl)-piperidine-1-carbonyl]-indol-1-yl}-N-methyl-acetamide] | 7
CN(C)CCn1cc(C(=O)N2CCC(c3ccccc3F)CC2)c2ccc(Cl)cc21 [Example 115, [6-Chloro-1-(2-dimethylamino-ethyl)-1H-indol-3-yl]-[4-(2-fluoro-phenyl)-piperidin-1-yl]-methanone] | 11
O=C(Cn1cc(C(=O)N2CCC(c3ccccc3F)CC2)c2ccc(Cl)cc21)N1CCNCC1 [Example 118, 2-{6-Chloro-3-[4-(2-fluoro-phenyl)-piperidine-1-carbonyl]-indol-1-yl}-1-piperazin-1-yl-ethanone hydrochloride] | 12

Further lines, results first:

Ki [nM] | Structure (SMILES)
6 | CN1CCN(C(=O)Cn2cc(C(=O)N3CCC(c4ccccc4C(F)(F)F)CC3)c3ccc(Cl)cc32)CC1 [Example 97, 2-{6-Chloro-3-[4-(2-trifluoromethyl-phenyl)-piperidine-1-carbonyl]-indol-1-yl}-1-(4-methyl-piperazin-1-yl)-ethanone]
7 | CN(C)C(=O)Cn1cc(C(=O)N2CCC(c3ccccc3C(F)(F)F)CC2)c2ccc(Cl)cc21 [Example 102, 2-{6-Chloro-3-[4-(2-trifluoromethyl-phenyl)-piperidine-1-carbonyl]-indol-1-yl}-N,N-dimethyl-acetamide]
5 | CNC(=O)Cn1cc(C(=O)N2CCC(c3ccccc3OC)CC2)c2ccc(Cl)cc21 [Example 106, 2-{6-Chloro-3-[4-(2-methoxy-phenyl)-piperidine-1-carbonyl]-indol-1-yl}-N-methyl-acetamide]
3 | CN(C)C(=O)Cn1cc(C(=O)N2CCC(c3ccccc3F)CC2)c2ccc(Cl)cc21 [Example 114, 2-{6-Chloro-3-[4-(2-fluoro-phenyl)-piperidine-1-carbonyl]-indol-1-yl}-N,N-dimethyl-acetamide]
6 | CN1CCN(C(=O)Cn2cc(C(=O)N3CCC(c4ccccc4F)CC3)c3ccc(Cl)cc32)CC1 [Example 117, 2-{6-Chloro-3-[4-(2-fluoro-phenyl)-piperidine-1-carbonyl]-indol-1-yl}-1-(4-methyl-piperazin-1-yl)-ethanone]
